Results: patent US20260285924A1, “PEPTIDE THERAPEUTICS” (priority 2023, published 2026)

What was measured:
A375 cells = test: A-to-I PepTile screen: fitness effect upon IFNα (PepTile abundance untreated vs treated); type: cell-based, human
Excerpt: (§1) FIGS. 12A-12D. A-to-I PepTile screen. (A) Composition of A-to-I PepTile linrary screen, and schematic description of the lentiviral expression vector. (B) Experimental workflow. A375 cells were transduced at low MOI, and then treated or not with IFNα for 48 hrs. RNA was extracted and Peptide_ADARreporter RNA species were amplified and sequenced by NGS. (C) Dot plot of A-to-I PepTile library effect on A-to-I editing with or without IFNα treatment. Red line is the mean A-to-I editing of all the 8088 peptides (>100 read counts) no treatment: 25.75% IFNα: 37.6%. (D) Dot plot of A-to-I PepTile library fitness effect upon IFNα for 48 hrs.
Provided herein is a screening methodology to measure the effect of small peptide on A-to-I RNA editing in situ and screen thousands of peptides in a single experiment. First, a library of peptides with the potential of impairing A-to-I editing was designed and built. ADAR enzymes edit RNA only on double-stranded RNA structures and via ADAR's double stranded RNA-Binding Domain (dsRBD). […] The A-to-I PepTile library is composed of 19 Human proteins having dsRBD and 34 known protein-protein interactors of ADAR1/2. All these proteins were tiled into 40-mer peptides every 4 amino acids (FIG. 12A). To measure A-to-I editing, a biosensor consisting of a 71 bp dsRNA hairpin structure that gets A-to-I edited at a rate of 25% in A375 melanoma cells, and ~37% upon IFNα treatment was used. This A-to-I editing reporter is fused with DNA sequence encoding for a peptide from the A-to-I PepTile library. The A-to-I PepTile plasmid pool (10304 elements) was used to produced lentiviruses and transduced A375 cells at a low multiplicity of infection (MOI) (FIG. 12B). A part of the infected cells was treated with IFNα at 6000 U/ml for 48 hours, and then bulk RNA of the basal and treated condition was harvested. RNA was then retrotranscribed into cDNA and sequenced by Next-Generation Sequencing (NGS). With the sequencing data, the A-to-I editing percentage of the RNA reporter for each PepTile is calculated since both elements are encoded on the same transcript. Moreover, with this screen one can also measure the abundance of the PepTiles between the untreated and treated conditions and determine Fitness score associated to every PepTile. To ensure a robust and more accurate A-to-I editing % estimation a cut-off of 100 read counts was set for each PepTile. […] SEQ ID NOs: 2125-2147 are A-to-I peptide inhibitors and SEQ ID NOs: 2148-2210 are A-to-I activators. In addition, 117 PepTiles were identified that either synergize (SEQ ID NOs: 2211-2243) or protect (SEQ ID NOs: 2244-2327) to IFNα-induced cell death (FIG. 12D and Table 5). These PepTiles are potential new therapeutic agents that can modulate the Interferon pathway. They may be beneficial in treating inflammatory conditions and may also enhance the effectiveness of cancer immunotherapy through synergistic effects.

[1] = tested on: A-to-I RNA editing reporter (ADAR) in A375; test: A-to-I PepTile (REPTILE) screen: A-to-I editing of dsRNA hairpin reporter by NGS; type: cell-based, human; conditions: for % A-to-I editing (IFNα): IFNα 6000 U/ml for 48 hours; for % A-to-I editing (Basal): no treatment
Excerpt: as §1
FIGS. 17A-17F show A-to-I RNA Editing PiTile (REPTILE) screen in A375. (A) A-to-I RNA Editing PiTile (REPTILE) library design consist of fragmentation of all known ADAR1, ADAR2 interactors and all human double stranded RNA-binding protein into 40 amino acid long peptide. This library was then cloned into a lentivirus vector that also encode a DNA-encoded RNA loop reporter (A-to-I Rep) that is edited by ADAR proteins in cells at the RNA level. When the construct is expressed, the RNA loop gets edited on a single Adenosine, while the 40-mer peptide get expressed at the protein level. Then we can measure the impact of the peptide expression on the editing rate of the RNA loop reporter by sequencing (NGS and Sanger). (B) Experimental workflow of REPTILE screen in A375 cell line. Cells were transduced with the REPTILE library, and then treated for 48 hours with IFNα. Following the treatment, RNA was harvested, converted into cDNA and amplicon library containing peptide Identity (barcode) linked to the RNA loop reporter were prepared for NGS. (C) Result of the A375 REPTILE screen in the no treatment condition. Each dot represents a unique peptide that is associated with an A-to-I editing rate that was measured on the RNA loop. (D) Result of the A375 REPTILE screen in the IFNα condition. Each dot represents a unique peptide that is associated with an A-to-I editing rate that was measured on the RNA loop. Red line represent the A-to-I editing mean, Dash blue line represent 2 times the standard deviation of the % A-to-I editing across all the datasets. This cutoff was used to defined peptides hits that modulate RNA A-to-I editing. (E) Peptide A-to-I Inhibitor Hits intersection between no treatment (% A-to-I editing<15%) and IFNα (% A-to-I editing<27%) conditions. (F) Peptide A-to-I Enhancers Hits intersection between no treatment (% A-to-I editing>36%) and IFNα (% A-to-I editing>47%) conditions.
Provided herein is a screening methodology to measure the effect of small peptide on A-to-I RNA editing in situ and screen thousands of peptides in a single experiment. First, a library of peptides with the potential of impairing A-to-I editing was designed and built. ADAR enzymes edit RNA only on double-stranded RNA structures and via ADAR's double stranded RNA-Binding Domain (dsRBD). […] The A-to-I PepTile library is composed of 19 Human proteins having dsRBD and 34 known protein-protein interactors of ADAR1/2. All these proteins were tiled into 40-mer peptides every 4 amino acids (FIG. 12A). To measure A-to-I editing, a biosensor consisting of a 71 bp dsRNA hairpin structure that gets A-to-I edited at a rate of 25% in A375 melanoma cells, and ~37% upon IFNα treatment was used. This A-to-I editing reporter is fused with DNA sequence encoding for a peptide from the A-to-I PepTile library. The A-to-I PepTile plasmid pool (10304 elements) was used to produced lentiviruses and transduced A375 cells at a low multiplicity of infection (MOI) (FIG. 12B). A part of the infected cells was treated with IFNα at 6000 U/ml for 48 hours, and then bulk RNA of the basal and treated condition was harvested. RNA was then retrotranscribed into cDNA and sequenced by Next-Generation Sequencing (NGS). […]

[2] = IFNα 6000 U/ml for 48 hours vs untreated
[3] = A375, PepTile abundance upon IFNα treatment, negative = synthetic lethal, positive = protector

Sequence	Fitness Score IFNα (A375 cells; [2])	% A-to-I editing (IFNα) [1]	% A-to-I editing (Basal) [1]	Fitness Score IFNα (A375 cells; [3])
MAGPLGPGDAVRRVLECVATGTLLTDGPGLQDPCERDQTDA [ZFR2_207]	1.51	51.31%	45.30%	
MAPVAAHTVTAAYAPAAATVAVARPAPVAVAAAATAAAYGG [ZFR_18]	1.04	49.47%	37.25%	
MASLQISPQPRPWRPLPAQAQSAWGPAPAPATYRAEGGWPQ [ADAD2_6]	3.12	48.57%	40.89%	3.12
MAVEITGAGPGASSVCNSAPGSGPSSPNSSHSTIAENGFTG [HDAC5_75]	0.76	55.71%	40.79%	
MAVRRVLECVATGTLLTDGPGLQDPCERDQTDALEPMTLQE [ZFR2_209]	0.22	50.31%	39.66%	
MCLSSHFQELSIYQDQEQRILKFLEELGEGKATTAHDLSGK [ADAR_32]	-0.47	48.60%	38.66%	
MCSFNDPNAKEMHLKGRRHRLQYKKKVNPDLQVEVKPSIRA [ZFR_148]	-1.00	48.58%	37.77%	
MCYYVFGDLSGGCESYLVNLSLNDNDGSSGASDQDTLAPLP [DVL2_126]	0.54	54.28%	43.60%	
MDTLDPELFVECTECGRKMHQICVLHHEIIWPAGFVCDGCL [EP300_310]	-1.83	26.86%	14.29%	
MDTVISLLTGLSDSQVRAFRHTSTLAAMKLMTALVNVALNL [STAG1_51]	-0.15	80.32%	74.10%	
MECMHKLGNSCEFRLLSKEGPAHEPKFQYCVAVGAQTFPSV [ADAR_156]	0.35	20.83%	13.60%	
MEPAKGGEKLQIKKTVSFHLYISTAPCGDGALFDKSCSDRA [ADAR_236]	-1.07	55.48%	39.57%	
MESTIVEPKQNENRLSDTKPNDNKQNNGRSETTKSRPETPK [NIPBL_167]	1.11	52.90%	39.35%	
METVSSNSSNNTGNSTTETSSTLEVRTQGPILTASGKNPVM [STRBP_120]	0.07	22.73%	10.91%	
MFKKRAVEITGAGPGASSVCNSAPGSGPSSPNSSHSTIAEN [HDAC5_74]	0.29	55.72%	38.94%	
MFPAVCAHSKKQGKQEAADAALRVLIGENEKAERMGFTEVT [ADAR_193]	0.57	22.77%	11.47%	
MFSSRGINFRTRHLMQDLRMLMPHSKADTKMDRKDKLFVIN [BRIX1_17]	1.21	47.02%	38.66%	
MGELSSADEKRYRALKRTAERELLMNADVICCTCVGAGDPR [UPF1_147]	-0.63	24.68%	13.30%	
MGFRGNSGGDYRGPSGGYRGSGGFQRGGGRGAYGTGYFGQG [DHX9_307]	1.50	47.59%	40.04%	
MGLSPSIDTLDHIRALDRLQEVPHEGPMCDLLWSDPDDRGG [PPP2CB_43]	-0.38	62.33%	46.04%	
MGPGDAVRRVLECVATGTLLTDGPGLQDPCERDQTDALEPM [ZFR2_208]	0.67	51.37%	37.66%	
MGRRSSGGGRYRNRSPSDSDMEDYSPPPSLSEVARKMKKKE [NIPBL_285]	1.59	47.59%	42.29%	
MIIYDEYMMDTVISLLTGLSDSQVRAFRHTSTLAAMKLMTA [STAG1_49]	0.55	48.18%	44.91%	
MIQDPAQAEAYTIYWLVAALAPLVAAPPRPSQGRLAGREWS [UBE2I_32]	-0.02	47.26%	44.43%	
MKECVDHLSRDEDEEKLVASLWGAERCLRVLESVTVHNPEN [WAPAL_208]	1.55	50.33%	50.48%	
MKEHMDAINHDTKELEKMTNRQGMLLKKKEECMKKIRELGS [SMC3_228]	-3.54	23.22%	13.27%	-3.54
MKKNIAAERKEAKQEKEEADRYQRLKDEVVRAQVQLQLFKL [SMC1A_48]	1.61	26.12%	11.19%	
MKTPIQVLHEYGMKTKNIPVYECERSDVQIHVPTFTFRVTV [PRKRA_9]	-0.21	48.95%	43.02%	
MKVPAVPVQWGNCGDTGTRSAGPLRRNYNFIAAVVEKVAPS [HTRA4_36]	0.18	25.56%	12.55%	
MLANFGPRINDIKRIIQSREREMKDLKEKMNQVEDEVFEEF [SMC1A_186]	0.69	56.93%	55.39%	
